From patent US12492403B2, “Aptamers and the use thereof in the treatment of cancer” (FUNDACIÓN PARA LA INVESTIGACIÓN BIOMÉDICA DEL HOSPITAL …, priority 2018, dated 2025)

Legend:
MCF7 cells = assay: Cell viability by trypan blue exclusion; type: cell-based, human; details: MCF7, 150 nM, 24 hours after transfection, vs control aptamer AT
Description: (§1) FIG. 9. Cell viability analysis by trypan blue exclusion. MCF7, MDA-MB-231, and MDA-MB-468 cells from different experiments were collected 24 hours after transfection, diluted 1:10 in trypan blue, and counted in a TC20 counter (BioRad, USA). The boxes represent the mean±the maximum and minimum of 12-14 independent experiments (**p<0.01, and ***p<0.001 with respect to the control aptamer AT). Trypan blue exclusion. Cells (live and dead) were collected in their corresponding medium, trypan blue (Sigma-Aldrich, USA) was added, and the cells were counted using the TC20 counter (BioRad, USA). Living cells are those which exclude the dye. The results were expressed as the number of living cells/mL. The cell lines were then transfected with the previously established concentrations and the number of living cells was determined 24 hours after transfection with […]2 or with the control aptamer AT by means of trypan blue exclusion.

MDA-MB-231 cells = assay: Cell viability by trypan blue exclusion; type: cell-based, human; details: MDA-MB-231, 400 nM, 24 hours after transfection, vs control aptamer AT
Description: as §1

MDA-MB-468 cells = assay: Cell viability by trypan blue exclusion; type: cell-based, human; details: MDA-MB-468, 50 nM, 24 hours after transfection, vs control aptamer AT
Description: as §1

[1] = tested on: orthotopic xenograft of MDA-MB-231 cells; assay: In vivo efficacy in orthotopic xenograft mouse model; set-up: species or system nude mice
Description: FIGS. 19A-19D. In vivo efficacy of apMNKQ2 in an orthotopic xenograft mouse model of MDA-MB-231 cells. (A) Evolution of the weight of the mouse over days of treatment with apMNKQ2 (FIG. 19A). (B) Relative tumor volume (RTV) over days of treatment (FIG. 19B). (C) Tumor weight after sacrificing the animal (FIG. 19C). (D) Immunohistochemical determination of proliferating cell nuclear antigen (PCNA) levels (FIG. 19D). The analysis of the positive nuclei was performed with the imageJ program. The boxes represent the mean±the maximum and minimum of 5-8 animals (*p<0.05 with respect to the control group).
FIGS. 20A-20D. Activation of apoptosis and expression of EMT markers in tumors from the mice with an orthotopic xenograft of MDA-MB-231 cells of FIG. 19. Immunodetection with specific antibodies by SDS-PAGE 12% of “cleaved” PARP ([…]), a-Spectrin (FIG. 20B) and the anti-apoptotic protein MCL1 (FIG. 20C) in tissue of mice treated with 1.8 mg/Kg of apMNKQ2 or with the vehicle. Expression levels of occludin (epithelial status marker) and FSP1 (mesenchymal marker) in tissue of mice treated with 1.8 mg/kg of apMNKQ2 or with the vehicle using qPCR (FIG. 20D). The values obtained were normalized with respect to β-actin. The boxes represent the mean±the maximum and the minimum of 4-5 animals (*p<0.05, **p<0.01 with respect to the control group).
For transfection in the in vivo model, the in vivo-jetPEI® transfection system (Polyplus, France) was used according to the manufacturer's instructions. The aptamer and jetPEI® reagent were separately diluted in glucose for the subsequent addition of the jetPEI® complex to that of the aptamer, such that the final glucose concentration is 5%. It was added to the cultures or injected into animals according to the assay.
Total RNA was obtained from cells using the NucleoZOL reagent ([…]-NAGEL, Germany) according to the manufacturer's instructions. Obtained RNA purity and integrity analyses were performed using the Experion™ RNA HighSens Analysis Kit chip (BioRad, USA). For the quantitative analysis of the mRNA levels, cDNAs were obtained with the SensiFAST™ cDNA synthesis kit (Bioline, United Kingdom) and real-time PCR was carried out in an IQ5 thermocycler (BioRad, USA) with the FastGene IC Green 2×qPCR Universal Mix kit (NIPPON Genetics, Germany).
In vivo assays were performed with nude mice inoculated with MDA-MB-231 cells and orthotopic tumors were generated. When these tumors reached a volume of 100 mm^3, the mice were randomly distributed into two groups of 9 animals. The treated group (1.8 mg/kg) was intravenously injected with 100 μl of 5% glucose containing 46 μg (5 nmol) of apMNKQ2 and 5.6 μl of jetPEI® transfectant (N/P ratio of 6) three times a week. The control group was injected with the 5% glucose solution containing the same volume of in vivo-jetPEI® reagent and aptamer buffer. As monitoring parameters, the tumor volume, assuming they are ellipsoids, and the weight of the animals were measured. At 18 days, the animals were sacrificed and the tumors were weighed and divided into two fragments, one to be frozen and another for fixing and inclusion in paraffin.
The immunohistochemical determination of the proliferating cell nuclear antigen (PCNA), sections of the paraffinized samples were made and they were then deparaffinized and rehydrated. The antigen was unmasked by incubating the sections in a 10 mM citrate buffer in a pressure cooker at maximum pressure for 2 minutes. After performing two quick washes with distilled water and two 5-minute washes with TBS, the sections were incubated in a blocking solution (3% fetal bovine serum in TBS with 0.05% triton X-100) for 30 minutes at room temperature. The samples were then incubated with the primary antibody PCNA (Santa Cruz Biotechnology, USA) at a dilution of 1:100 at room temperature overnight. […]

[2] = tumors of mice treated with 1.8 mg/kg vs vehicle

## 5′TGGGGTGGGCGGGCGGGGGTGGGGGTGGT-3′ (DNA, backbone and methylation of C not given here; further chemistry not fully specified) [apMNKQ2]
MCF7 cells
  total number of living cells (trypan blue exclusion): significant drop
MDA-MB-231 cells
  total number of living cells (trypan blue exclusion): very slight drop
MDA-MB-468 cells
  total number of living cells (trypan blue exclusion): significant drop
[1]; 1.8 mg/kg intravenously three times a week, 18 days
  decrease of cell proliferation in the tumor (PCNA immunohistochemistry) with respect to the control group: 50%
[1]; 1.8 mg/kg intravenously three times a week, 18 days, not statistically significant
  decrease of the weight of the tumor after sacrificing the animals: 27%
[1]; 1.8 mg/kg intravenously with jetPEI three times a week, 18 days
  weight of the mice: no changes
[1]; intravenous with jetPEI three times a week, statistically significant at 7 and 18 days of treatment
  relative size of the tumor (relative tumor volume) vs control group: smaller
[1]; tumors of mice treated with 1.8 mg/Kg vs vehicle
  apoptosis in tumors (cleaved PARP, α-spectrin, MCL1 immunodetection): apoptotic effect
[1]; [2]
  mRNA levels of the mesenchymal marker FSP1 in tumors (qPCR): decrease (although not significant)
  occludin epithelial marker expression in tumors (qPCR): increases significantly
